Experimental data from the supplement of paper PMC13380429.

What was measured:
HepG2 [1] = assay: drug sensitivity score (DSS) for viability; higher = more toxic; extreme values may be limits of the assay; conditions: 72 h
Caco-2 [2] = assay: as above; conditions: 72 h
Calu-3 [3] = assay: as above; conditions: 72 h
Vero E6 [4] = assay: as above; conditions: 72 h
[5] = test system: A549-ACE2 infected with SARS-CoV-2; assay: morphology score (similarity to uninfected cells); higher = more like uninfected cells; conditions: 24 h
A549-ACE2 [6] = assay: drug-induced phospholipidosis relative to tamoxifen; higher = more phospholipidosis
[7] = test system: A549-ACE2 infected with SARS-CoV-2; assay: SARS-CoV-2 infection rate relative to DMSO; higher = more infection; conditions: 24 h
HepG2 [8] = assay: relative viability EC50 (midpoint between 100% and the lowest measured viability); higher = less toxic; conditions: 72 h
Caco-2 [9] = assay: as above; conditions: 72 h
Calu-3 [10] = assay: as above; conditions: 72 h
Vero E6 [11] = assay: as above; conditions: 72 h
[12] = test system: A549-ACE2 infected with SARS-CoV-2; assay: cell count relative to DMSO; higher = less toxic; conditions: 24 h
HepG2 [13] = assay: cell viability relative to DMSO; higher = less toxic; conditions: 72 h
Caco-2 [14] = assay: as above; conditions: 72 h
Calu-3 [15] = assay: as above; conditions: 72 h
Vero E6 [16] = assay: as above; conditions: 72 h
U2OS [17] = assay: drug sensitivity score (DSS) for viability; higher = more toxic; extreme values may be limits of the assay; conditions: 72 h
U2OS [18] = assay: relative viability EC50 (midpoint between 100% and the lowest measured viability); higher = less toxic; conditions: 72 h
U2OS [19] = assay: cell viability relative to DMSO; higher = less toxic; conditions: 72 h
A549-ACE2 [20] = assay: phospholipidosis EC50; higher = less potent phospholipidosis inducer

CC(=O)N(O)[C@@H]1c2cc(C#N)ccc2OC(C)(C)[C@H]1O
Conditions	drug sensitivity score	relative viability EC50 [µM]
Caco-2 [2]	0	–
Caco-2 [9]	–	> 10
Calu-3 [3]	0	–
Calu-3 [10]	–	> 10
HepG2 [1]	0	–
HepG2 [8]	–	> 10
Vero E6 [4]	0	–
Vero E6 [11]	–	> 10

Conditions	SARS-CoV-2 infection rate, [7] [%]	cell count, [12] [%]	cell viability, Caco-2 [14] [%]	cell viability, Calu-3 [15] [%]	cell viability, HepG2 [13] [%]	cell viability, Vero E6 [16] [%]	morphology score, [5]
1 nM	–	–	102	103	101	94.6	–
10 nM	–	–	86.8	90.8	108	102	–
100 nM	–	–	93.1	89.9	95.8	96.5	–
0.3 µM	93	105	–	–	–	–	0.26
1000 nM	–	–	104	102	107	102	–
3 µM	77	107	–	–	–	–	0.56
10 µM	40	119	–	–	–	–	0.81
10000 nM	–	–	99.7	95.2	105	95.6	–
30 µM	36	116	–	–	–	–	0.82

drug-induced phospholipidosis [%], A549-ACE2 [6]
Conditions	0.3 µM	0.833333 µM	3.33333 µM	6.66667 µM	10 µM	30 µM
24 h	5.83	-1.4	-3.17	0.06	-1.41	3.58
48 h	5.86	-0.55	-0.21	-2.36	-0.04	3.92
72 h	1.36	-4.06	-1.89	-2.87	0.112	6.24

C=C1C(=O)O[C@@H]2/C=C(\C)CC/C=C(\C)CC[C@@H]12 [costunolide]
Conditions	drug sensitivity score	relative viability EC50 [µM]
Caco-2 [2]	0.9	–
Caco-2 [9]	–	> 10
Calu-3 [3]	0	–
Calu-3 [10]	–	> 10
HepG2 [1]	0	–
HepG2 [8]	–	> 10
U2OS [17]	0	–
U2OS [18]	–	> 10
Vero E6 [4]	0	–
Vero E6 [11]	–	> 10

Conditions	SARS-CoV-2 infection rate, [7] [%]	cell count, [12] [%]	cell viability, Caco-2 [14] [%]	cell viability, Calu-3 [15] [%]	cell viability, HepG2 [13] [%]	cell viability, U2OS [19] [%]	cell viability, Vero E6 [16] [%]	morphology score, [5]
1 nM	–	–	96.5	117	99.7	96.3	98.6	–
10 nM	–	–	92.8	102	108	99.8	91.9	–
100 nM	–	–	91.1	98.7	92.9	94.3	99.1	–
0.3 µM	103	104	–	–	–	–	–	0.19
1000 nM	–	–	86.6	94.5	97.3	96.8	97.8	–
3 µM	104	97	–	–	–	–	–	-0.19
10 µM	106	99	–	–	–	–	–	-0.21
10000 nM	–	–	87.1	105	91.5	94.7	93.4	–
30 µM	66	70	–	–	–	–	–	0.15

drug-induced phospholipidosis [%], A549-ACE2 [6]
Conditions	0.3 µM	0.833333 µM	3.33333 µM	6.66667 µM	10 µM	30 µM
24 h	0.39	-3.23	0.77	4.32	10.4	39.6
48 h	2.36	-2.51	0.025	1.2	4.57	14.4
72 h	2.1	-1.84	-1.2	-0.442	1.25	9.89

O=C(c1ccc(/C=C/c2n[nH]c3ccccc23)cc1)N1CCNCC1 [KW-2449]
Conditions	drug sensitivity score	relative viability EC50 [µM]
Caco-2 [2]	0	–
Caco-2 [9]	–	> 10
HepG2 [1]	2.2	–
U2OS [17]	1.7	–
Vero E6 [4]	0	–
Vero E6 [11]	–	> 10

Conditions	SARS-CoV-2 infection rate, [7] [%]	cell count, [12] [%]	cell viability, Caco-2 [14] [%]	cell viability, HepG2 [13] [%]	cell viability, U2OS [19] [%]	cell viability, Vero E6 [16] [%]	morphology score, [5]
1 nM	–	–	98.7	102	103	103	–
10 nM	–	–	98.6	108	102	104	–
100 nM	–	–	97.2	98.6	101	99.3	–
0.3 µM	98	105	–	–	–	–	0.33
1000 nM	–	–	99	94.6	100	101	–
3 µM	79	59	–	–	–	–	0.51
10 µM	26	39	–	–	–	–	0.62
10000 nM	–	–	108	69.6	63.1	95.3	–
30 µM	40	1	–	–	–	–	0.12

drug-induced phospholipidosis [%], A549-ACE2 [6]
Conditions	0.3 µM	0.833333 µM	3.33333 µM	6.66667 µM	10 µM
24 h	-0.51	-0.69	3.6	13.3	8.57
48 h	-1.26	-3.23	0.95	9.27	0.37
72 h	-0.724	-3.37	–	–	–

COc1ccccc1C1(O)CCN(CCCn2c3ccccc3c3ccccc32)CC1 [NNC-05-2090]
Conditions	drug sensitivity score	relative viability EC50 [µM]
Caco-2 [2]	3.4	–
Calu-3 [3]	7	–
Calu-3 [10]	–	2.19
HepG2 [1]	3.2	–
HepG2 [8]	–	3.14
U2OS [17]	0.9	–
U2OS [18]	–	> 10
Vero E6 [4]	1.9	–

Conditions	SARS-CoV-2 infection rate [%]	cell count [%]	cell viability [%]	morphology score	phospholipidosis EC50 [µM]
A549-ACE2 [20], 24 h	–	–	–	–	1.98
A549-ACE2 [20], 48 h	–	–	–	–	3.85
A549-ACE2 [20], 72 h	–	–	–	–	4.18
Caco-2 [14], 1 nM	–	–	97.4	–	–
Caco-2 [14], 10 nM	–	–	91.7	–	–
Caco-2 [14], 100 nM	–	–	109	–	–
Caco-2 [14], 1000 nM	–	–	83.1	–	–
Caco-2 [14], 10000 nM	–	–	68.4	–	–
Calu-3 [15], 1 nM	–	–	94.1	–	–
Calu-3 [15], 10 nM	–	–	99.9	–	–
Calu-3 [15], 100 nM	–	–	90.7	–	–
Calu-3 [15], 1000 nM	–	–	89.1	–	–
Calu-3 [15], 10000 nM	–	–	7.5	–	–
HepG2 [13], 1 nM	–	–	94.9	–	–
HepG2 [13], 10 nM	–	–	99.7	–	–
HepG2 [13], 100 nM	–	–	90.4	–	–
HepG2 [13], 1000 nM	–	–	99.9	–	–
HepG2 [13], 10000 nM	–	–	40.8	–	–
U2OS [19], 1 nM	–	–	99.4	–	–
U2OS [19], 10 nM	–	–	94.1	–	–
U2OS [19], 100 nM	–	–	102	–	–
U2OS [19], 1000 nM	–	–	94.6	–	–
U2OS [19], 10000 nM	–	–	82.9	–	–
Vero E6 [16], 1 nM	–	–	90.9	–	–
Vero E6 [16], 10 nM	–	–	97.5	–	–
Vero E6 [16], 100 nM	–	–	88.1	–	–
Vero E6 [16], 1000 nM	–	–	92.1	–	–
Vero E6 [16], 10000 nM	–	–	74.5	–	–
[5], 0.1 µM	–	–	–	0.12	–
[5], 0.3 µM	–	–	–	0.04	–
[5], 1 µM	–	–	–	0.29	–
[5], 3 µM	–	–	–	0.85	–
[7], 0.1 µM	98	–	–	–	–
[7], 0.3 µM	98	–	–	–	–
[7], 1 µM	86	–	–	–	–
[7], 3 µM	34	–	–	–	–
[12], 0.1 µM	–	98	–	–	–
[12], 0.3 µM	–	106	–	–	–
[12], 1 µM	–	109	–	–	–
[12], 3 µM	–	119	–	–	–

drug-induced phospholipidosis [%], A549-ACE2 [6]
Conditions	0.3 µM	0.833333 µM	3.33333 µM	6.66667 µM	10 µM
24 h	3.96	10.5	87.6	108	101
48 h	4.69	12.2	64.2	102	116
72 h	5.37	9.7	49.7	106	121
